pIC50: −log10 of the molar value. Values joined by “and” are separate entries in the source; they are usually repeats but may differ in a detail not shown here. Equal entries are not always repeated.
Test system: 699152-130-R-J1-PDC complex spheroid growth
Test: Anticancer human tumor 699152-130-R-J1-PDC patient-derived pancreatic carcinoma cell line growth inhibition [AhR]
Conditions: for viability, T/C: stronger effect = lower value
Method in brief: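 Agents were dosed in half-log steps down from roughly clinical Cmax, or from 10 microM where Cmax was unknown, alone and with AhR antagonists. Read-out: percent test/control growth of tumor spheroids containing HUVEC and MSC stromal cells.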

[1] = curve of first compound, second compound 0.1 µM
[2] = curve of first compound, second compound 0.316 µM
[3] = curve of first compound, second compound 1 µM
[4] = curve of first compound, second compound 3.16 µM
[5] = curve of first compound, second compound 10 µM
[6] = second compound 0.1 µM, first compound 0.0316 µM
[7] = second compound 0.1 µM, first compound 0.1 µM
[8] = second compound 0.1 µM, first compound 0.316 µM
[9] = second compound 0.1 µM, first compound 1 µM
[10] = second compound 0.1 µM, first compound 3.16 µM
[11] = second compound 0.1 µM, first compound 10 µM
[12] = second compound 0.316 µM, first compound 0.0316 µM
[13] = second compound 0.316 µM, first compound 0.1 µM
[14] = second compound 0.316 µM, first compound 0.316 µM
[15] = second compound 0.316 µM, first compound 1 µM
[16] = second compound 0.316 µM, first compound 3.16 µM
[17] = second compound 0.316 µM, first compound 10 µM
[18] = second compound 1 µM, first compound 0.0316 µM
[19] = second compound 1 µM, first compound 0.1 µM
[20] = second compound 1 µM, first compound 0.316 µM
[21] = second compound 1 µM, first compound 1 µM
[22] = second compound 1 µM, first compound 3.16 µM
[23] = second compound 1 µM, first compound 10 µM
[24] = second compound 3.16 µM, first compound 0.0316 µM
[25] = second compound 3.16 µM, first compound 0.1 µM
[26] = second compound 3.16 µM, first compound 0.316 µM
[27] = second compound 3.16 µM, first compound 1 µM
[28] = second compound 3.16 µM, first compound 3.16 µM
[29] = second compound 3.16 µM, first compound 10 µM
[30] = second compound 10 µM, first compound 0.0316 µM
[31] = second compound 10 µM, first compound 0.1 µM
[32] = second compound 10 µM, first compound 0.316 µM
[33] = second compound 10 µM, first compound 1 µM
[34] = second compound 10 µM, first compound 3.16 µM
[35] = second compound 10 µM, first compound 10 µM
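Further: compound exposure lasted 7 days after spheroids had grown for 3 days.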

Row | Compound | pIC50 [1] | pIC50 [2] | pIC50 [3] | pIC50 [4] | pIC50 [5] | viability, T/C [6] | viability, T/C [7] | viability, T/C [8] | viability, T/C [9] | viability, T/C [10] | viability, T/C [11] | viability, T/C [12] | viability, T/C [13] | viability, T/C [14] | viability, T/C [15] | viability, T/C [16] | viability, T/C [17] | viability, T/C [18] | viability, T/C [19] | viability, T/C [20] | also measured
1 | Nc1ccccc1NC(=O)c1ccc(CNC(=O)OCc2cccnc2)cc1 + Cc1ccccc1N=Nc1ccc(NC(=O)c2ccnn2C)c(C)c1 | 5.12 | 5.17 | 5.14 | 5.10 | < 5.00 | 85.7% | 97.6% | 102% | 111% | 77.8% | 41.6% | 90.6% | 93.8% | 89.5% | 90.7% | 67.5% | 41.1% | 97.1% | 95.3% | 107% | viability, T/C [21]: 97.4%; viability, T/C [22]: 76.6%; viability, T/C [23]: 39.4%; viability, T/C [24]: 93.2%; viability, T/C [25]: 93.3%; viability, T/C [26]: 104%; viability, T/C [27]: 112%; viability, T/C [28]: 73.2%; viability, T/C [29]: 44.5%; viability, T/C [30]: 115%; viability, T/C [31]: 116%; viability, T/C [32]: 109%; viability, T/C [33]: 102%; viability, T/C [34]: 91.8%; viability, T/C [35]: 58.2%
2 | COc1cccc2c1C(=O)c1c(O)c3c(c(O)c1C2=O)CC(O)(C(=O)CO)CC3OC1CC(N)C(O)C(C)O1 (centres undefined) | – | – | – | – | – | – | – | – | – | – | – | – | – | – | – | – | – | – | – | – | viability, T/C (compound 0.0316 µM): 71.1% and 70.4% and 82.5%; viability, T/C (compound 0.1 µM): 64.3% and 56.2% and 87.1%; viability, T/C (compound 0.316 µM): 48.5% and 41.1% and 55.1%; viability, T/C (compound 1 µM): 30.3% and 29.7% and 31.8%; viability, T/C (compound 3.16 µM): 3.77% and 2.01% and 2.55%; viability, T/C (compound 10 µM): 8.13% and 7.62% and 11.8%; pIC50 (curve of compound): 6.50 and 6.75 and 6.35
3 | CC(CO)NC(=O)c1cc(-c2ccc(Cl)cc2)nn(-c2cnn(C)c2)c1=O (centres undefined) | – | – | – | – | – | – | – | – | – | – | – | – | – | – | – | – | – | – | – | – | viability, T/C (compound 0.1 µM): 92.1% [middle of 21 runs]; pIC50 (compound alone, run of 07/12/2022): < 5.00
4 | O=C(C=Cc1cccc(S(=O)(=O)Nc2ccccc2)c1)NO + Cc1ccccc1N=Nc1ccc(NC(=O)c2ccnn2C)c(C)c1 | < 5.00 | < 5.00 | < 5.00 | < 5.00 | < 5.00 | 91.2% | 109% | 111% | 110% | 108% | 97.8% | 87.9% | 99.4% | 106% | 114% | 97.3% | 95.4% | 97.5% | 118% | 111% | viability, T/C [21]: 116%; viability, T/C [22]: 101%; viability, T/C [23]: 96.2%; viability, T/C [24]: 103%; viability, T/C [25]: 102%; viability, T/C [26]: 107%; viability, T/C [27]: 115%; viability, T/C [28]: 103%; viability, T/C [29]: 81.5%; viability, T/C [30]: 109%; viability, T/C [31]: 114%; viability, T/C [32]: 116%; viability, T/C [33]: 122%; viability, T/C [34]: 97%; viability, T/C [35]: 85.2%

— PubChem BioAssay AID1919001 (Molecular Pharmacology Branch, DTP, NCI, 2023)
